{"source": "paper PMC5555364", "about": "(ACS chemical neuroscience, 2016)", "origin": "cited, not measured here", "key": {"NaV": {"system": "NaV", "conditions": "hyperpolarizing"}, "[1]": {"system": "single-point mutants of rNaV1.4", "conditions": "all amino acid mutations of Figure 5 except tyrosine 1586"}}}
{"substance": "Batrachotoxin [BTX]", "values": [{"measurement": "shift of voltage-dependence of channel activation", "setting": "NaV", "result": "−45", "unit": "mV"}, {"measurement": "effect of mutations on BTX action on channel function", "setting": "[1]", "result": "abrogate the effect of BTX"}]}
